Test results as given in US10292968B2, “Substituted heterocycles as bromodomain inhibitors” (Zenith Epigenetics Ltd., priority 2014, dated 2019).
Counter-ions that a name gives are not always drawn.

Experiments:
MV4-11 cells = experiment: Inhibition of cell proliferation in MV4-11 cells (Cell Titer Aqueous One); format: cell-based; details: Human AML MV-4-11 cells, 72 h; for IC50: MV4-11
Method: MV4-11 cells (CRL-9591) were plated at a density of 5×10^4 cells per well in 96 well flat bottom plates and treated with increasing concentrations of test compound or DMSO (0.1%) in IMDM media containing 10% FBS and penicillin/streptomycin. Triplicate wells were used for each concentration and a well containing only media was used as a control. Plates were incubated at 37° C., 5% CO2 for 72 h before adding 20 μL of the Cell Titer Aqueous One Solution (Promega) to each well and incubated at 37° C., 5% CO2 for an additional 3-4 h. The absorbance was read at 490 nm in a spectrophotometer and the percentage of cell titer relative to DMSO-treated cells was calculated after correcting for background by subtracting the blank well's signal. IC50 values were calculated using the GraphPad Prism software.

cMYC = experiment: Inhibition of cMYC expression (mRNA, real-time PCR) in MV4-11 cells; format: cell-based; details: Human AML MV4-11 cells, 3 h; for IC50: read-out: c-myc activity
Method: MV4-11 cells (CRL-9591) were plated at a density of 2.5×10^4 cells per well in 96 well U-bottom plates and treated with increasing concentrations of test compound or DMSO (0.1%) in IMDM media containing 10% FBS and penicillin/streptomycin, and incubated for 3 h at 37° C. Triplicate wells were used for each concentration. Cells were pelleted by centrifugation and harvested using the mRNA Catcher PLUS kit according to manufacturer's instructions. The eluted mRNA isolated was then used in a one-step quantitative real-time PCR reaction, using components of the RNA UltraSense™ One-Step Kit (Life Technologies) together with Applied Biosystems TaqMan® primer-probes for cMYC and Cyclophilin. Real-time PCR plates were run on a ViiA™7 real time PCR machine (Applied Biosystems), data was analyzed, normalizing the Ct values for cMYC to an internal control, prior to determining the fold expression of each sample, relative to the control.

[1] = target: T1, Brd4 bromodomain 1 (BRD4(1)) (Homo sapiens, UniProt O60885); experiment: AlphaScreen inhibition of tetra-acetylated histone H4 binding to BRD4(1); details: BRD4(1) at 20 nM, tetra-acetylated histone H4 peptide, 30 min incubation; read-out: Alpha Screen BRD4(1)
T1 construct: N-terminally His-tagged bromodomains (BRD4(1) at 20 nM and BRD4(2) at 100 nM); made in house; host or cells: E. coli BL21(DE3)
Method: (§1) Proteins were cloned and overexpressed with a N-terminal 6×His tag, then purified by nickel affinity followed by size exclusion chromatography. Briefly, E. coli BL21(DE3) cells were transformed with a recombinant expression vector encoding N-terminally Nickel affinity tagged bromodomains from Brd2, Brd3, Brd4. Cell cultures were incubated at 37° C. with shaking to the appropriate density and induced overnight with IPTG. The supernatant of lysed cells was loaded onto Ni-IDA column for purification. Eluted protein was pooled, concentrated and further purified by size exclusion chromatography. Fractions representing monomeric protein were pooled, concentrated, aliquoted, and frozen at −80° C. for use in subsequent experiments.
(§2) Binding of tetra-acetylated histone H4 peptide (Millipore) and BET bromodomains was confirmed by Amplified Luminescent Proximity Homogenous Assay (AlphaScreen). N-terminally His-tagged bromodomains (BRD4(1) at 20 nM and BRD4(2) at 100 nM) and biotinylated tetra-acetylated histone H4 (10-25 nM) were incubated in the presence of nickel chelate acceptor beads and streptavidin donor beads (PerkinAlmer, 6760000K) added to a final concentration of 2 μg/ml under green light in a white 96 well microtiter plate (Greiner). For inhibition assays, serially diluted compounds were added to the reaction mixtures in a 0.1% final concentrations of DMSO. Final buffer concentrations were 50 mM HEPES, 100 mM NaCl and 0.1% BSA buffer, pH 7.4 and optimized to 30 min incubation time. Assay plates were read at 570 nm on a Synergy H4 Plate Reader (Biotek). IC50 values were determined from a dose response curve.

[2] = target: T2, Brd 4 bromodomain 2 (BRD4(2)) (Homo sapiens, UniProt O60885); experiment: AlphaScreen inhibition of tetra-acetylated histone H4 binding to BRD4(2); details: BRD4(2) at 100 nM, tetra-acetylated histone H4 peptide, 30 min incubation; for IC50: read-out: Alpha Screen BRD4(2)
T2 construct: N-terminally His-tagged bromodomains (BRD4(1) at 20 nM and BRD4(2) at 100 nM); made in house; host or cells: E. coli BL21(DE3)
Method: as §1, §2

hIL-6 = experiment: Inhibition of hIL-6 mRNA transcription in LPS-stimulated U937 cells; format: cell-based; details: Homo sapiens, U-937, PMA-differentiated U937 cells, 1 h pretreatment, LPS 3 h, read-out: IL-6 activity
Method: Human leukemic monocyte lymphoma U937 cells (CRL-1593.2) were plated at a density of 3.2×10^4 cells per well in a 96-well plate in 100 μL RPMI-1640 containing 10% FBS and penicillin/streptomycin, and differentiated into macrophages for 3 days in 60 ng/mL PMA ([…]) at 37° C. in 5% CO2 prior to the addition of compound. The cells were pretreated for 1 h with increasing concentrations of test compound in 0.1% DMSO prior to stimulation with 1 ug/mL lipopolysaccharide from Escherichia coli. Triplicate wells were used for each concentration. The cells were incubated at 37° C., 5% CO2 for 3 h before the cells were harvested. At time of harvest, media was removed and cells were rinsed in 200 μL PBS. Cells were harvested using the mRNA Catcher PLUS kit according to manufacturer's instructions. The eluted mRNA was then used in a one-step quantitative real-time PCR reaction using components of the RNA UltraSense™ One-Step Kit (Life Technologies) together with Applied Biosystems TaqMan® primer-probes for hIL-6 and Cyclophilin. Real-time PCR plates were run on a ViiA™7 real time PCR machine (Applied Biosystems), data was analyzed, normalizing the Ct values for hIL-6 to an internal control, prior to determining the fold expression of each sample, relative to the control.

Row | Structure (SMILES) | IC50 (MV4-11 cells) | IC50 (cMYC) | IC50 [1] | IC50 [2] | IC50 (hIL-6) | Alpha Screen BRD4(2) [2] | Cell Proliferation activity (MV4-11 cells) | c-myc activity (cMYC)
1 | Cn1nnc2ccc(-c3[nH]c(-c4ccccc4)nc3-c3n[nH]c(=O)n3C3CC3)cc21 [Example 14, 4-cyclopropyl-3-(5-(1-methyl-1H-benzo[d][1,2,3]triazol-6-yl)-2-phenyl-1H-imidazol-4-yl)-1H-1,2,4-triazol-5(4H)-one hydrochloride] | 3000 to 30000 nM | 3000 to 30000 nM | ≤ 300 nM | ≤ 300 nM | 3000 to 30000 nM | – | – | –
2 | CC(=O)c1cc(F)cc(-c2[nH]c(-c3ccccc3)nc2-c2n[nH]c(=O)n2C2CC2)c1 [Example 9, 3-(5-(3-acetyl-5-fluorophenyl)-2-phenyl-1H-imidazol-4-yl)-4-cyclopropyl-1H-1,2,4-triazol-5(4H)-one hydrochloride] | 3000 to 30000 nM | 3000 to 30000 nM | 300 to 3000 nM | – | 3000 to 30000 nM | Not Active | – | –
3 | Cn1ncc2cc(-c3[nH]c(-c4ccccc4)nc3-c3n[nH]c(=O)n3C3CC3)ccc21 [Example 10, 4-cyclopropyl-3-(5-(1-methyl-1H-indazol-5-yl)-2-phenyl-1H-imidazol-4-yl)-1H-1,2,4-triazol-5(4H)-one hydrochloride] | – | – | 3000 to 30000 nM | 300 to 3000 nM | – | – | Not Active | Not Active
4 | Cn1ncc2ccc(-c3[nH]c(-c4ccccc4)nc3-c3n[nH]c(=O)n3C3CC3)cc21 [Example 7, 4-cyclopropyl-3-(5-(1-methyl-1H-indazol-6-yl)-2-phenyl-1H-imidazol-4-yl)-1H-1,2,4-triazol-5(4H)-one hydrochloride] | 3000 to 30000 nM | 3000 to 30000 nM | ≤ 300 nM | – | 3000 to 30000 nM | Not Active | – | –
5 | CC(=O)c1cccc(-c2[nH]c(-c3ccccc3)nc2-c2n[nH]c(=O)n2C2CC2)c1 [Example 1, 3-(5-(3-acetylphenyl)-2-phenyl-1H-imidazol-4-yl)-4-cyclopropyl-1H-1,2,4-triazol-5(4H)-one hydrochloride] | 3000 to 30000 nM | 3000 to 30000 nM | ≤ 300 nM | 3000 to 30000 nM | 3000 to 30000 nM | – | – | –
6 | CC(=O)c1cc(-c2[nH]c(-c3ccccc3)nc2-c2n[nH]c(=O)n2C2CC2)ccc1F [Example 8, 3-(5-(3-acetyl-4-fluorophenyl)-2-phenyl-1H-imidazol-4-yl)-4-cyclopropyl-1H-1,2,4-triazol-5(4H)-one hydrochloride] | – | – | ≤ 300 nM | – | 3000 to 30000 nM | Not Active | Not Active | Not Active
